For the assay, the system named is P388 leukemia ip, CD2F1 mice, survival T/C. Nature of the assay: NCI In Vivo Anticancer Drug Screen. Data for tumor model P388 Leukemia (intraperitoneal) in CD2F1 (CDF1) mice. The conditions noted are these: endpoint: median survival time, higher = longer survival. In a few lines: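 Mice carrying the transplanted tumor received test compound or vehicle. Survival was recorded in each group, and the value is the treated-group measurement divided by that of the vehicle-treated control group.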

[1] abbreviates: dose: 25.0 mg/kg/injection, schedule: Q01DX005 (ip), vehicle: saline with Tween-80.
The mark [2] stands for this setting: dose: 50.0 mg/kg/injection, schedule: Q01DX005 (ip), vehicle: saline with Tween-80.
The mark [3] stands for this setting: dose: 100.0 mg/kg/injection, schedule: Q01DX005 (ip), vehicle: saline with Tween-80.
Where [4] appears, read: dose: 200.0 mg/kg/injection, schedule: Q01DX005 (ip), vehicle: saline with Tween-80.
Setting [5] is: dose: 60.0 mg/kg/injection, schedule: Q01DX005 (ip), vehicle: Klucel (hydroxypropylcellulose) (HPC).
Where [6] appears, read: dose: 120.0 mg/kg/injection, schedule: Q01DX005 (ip), vehicle: Klucel (hydroxypropylcellulose) (HPC).
The mark [7] stands for this setting: dose: 240.0 mg/kg/injection, schedule: Q01DX005 (ip), vehicle: Klucel (hydroxypropylcellulose) (HPC).
Setting [8] is: dose: 60.0 mg/kg/injection, schedule: Q01DX005 (ip), vehicle: saline with Tween-80.
The mark [9] stands for this setting: dose: 120.0 mg/kg/injection, schedule: Q01DX005 (ip), vehicle: saline with Tween-80.
The mark [10] stands for this setting: dose: 240.0 mg/kg/injection, schedule: Q01DX005 (ip), vehicle: saline with Tween-80.
[11] abbreviates: dose: 50.0 mg/kg/injection, schedule: Q04DX003 (ip), vehicle: saline.
Setting [12] is: dose: 100.0 mg/kg/injection, schedule: Q04DX003 (ip), vehicle: saline.
Setting [13] is: dose: 200.0 mg/kg/injection, schedule: Q04DX003 (ip), vehicle: saline.
[14] abbreviates: dose: 400.0 mg/kg/injection, schedule: Q04DX003 (ip), vehicle: saline.
Setting [15] is: dose: 50.0 mg/kg/injection, schedule: Q01DX009 (ip), vehicle: saline with Tween-80.
Setting [16] is: dose: 60.0 mg/kg/injection, schedule: Q01DX005 (ip), vehicle: saline.
Setting [17] is: dose: 120.0 mg/kg/injection, schedule: Q01DX005 (ip), vehicle: saline.
The mark [18] stands for this setting: dose: 240.0 mg/kg/injection, schedule: Q01DX005 (ip), vehicle: saline.

Values joined by “and” are separate entries in the source; they are usually repeats but may differ in a detail not shown here. Equal values may be shown once. Toxic doses and inconclusive results are not listed.

For `O=c1c([N+](=O)[O-])c[nH]c2ccccc12`, the T/C was 92 % of control (dose: 25.0 mg/kg/injection, schedule: Q01DX009 (ip), vehicle: distilled water + Tween-80); 87 % of control (dose: 50.0 mg/kg/injection, schedule: Q01DX009 (ip), vehicle: distilled water + Tween-80); 108 % of control (dose: 100.0 mg/kg/injection, schedule: Q01DX009 (ip), vehicle: distilled water + Tween-80); 93 % of control (dose: 200.0 mg/kg/injection, schedule: Q01DX009 (ip), vehicle: distilled water + Tween-80).

For the compound `CC(=O)Nc1nnc(-c2coc3ccc(C)cc3c2=O)s1`, the T/C (dose: 6.25 mg/kg/injection, schedule: Q01DX005 (ip), vehicle: saline with Tween-80) was 99 % of control; the T/C (dose: 12.5 mg/kg/injection, schedule: Q01DX005 (ip), vehicle: saline with Tween-80) was 88 % of control and 89 % of control; the T/C under setting [1] is 86 % of control; the T/C under setting [2] is 86 % of control.

`COc1c2c3c4c5c(c(=O)cc6c5c5c(cc(=O)c(c1O)c35)OCO6)=C(O)[C@@]1(OC)O[C@H](C)C[C@@]41C2`: the T/C by setting is: (dose: 2.5 mg/kg/injection, schedule: Q01DX009 (ip), vehicle: saline with Tween-80) 95 % of control; (dose: 5.0 mg/kg/injection, schedule: Q01DX009 (ip), vehicle: saline with Tween-80) 95 % of control; (dose: 10.0 mg/kg/injection, schedule: Q01DX009 (ip), vehicle: saline with Tween-80) 95 % of control.

Regarding `CCCCCCCN(CCCCCCC)CC(O)c1ccc2ccc3ccc(Cl)cc3c2c1` (stereo not given), the T/C by setting is: under setting [2], 96 % of control; under setting [3], 96 % of control; under setting [4], 104 % of control.

Consider `CN(C)C(=O)c1ccccc1SC(=S)NCc1ccccc1`, for which the T/C is 102 % of control under setting [5], 102 % of control under setting [6] and 102 % of control under setting [7].

Take `c1ccc2c(c1)C[n+]1ccc3ccccc3c1-c1c3ccccc3cc[n+]1C2`: the T/C is, setting by setting: (dose: 12.5 mg/kg/injection, schedule: Q01DX001 (ip), vehicle: saline) 100 % of control; (dose: 25.0 mg/kg/injection, schedule: Q01DX001 (ip), vehicle: saline) 107 % of control.

For the compound `CSCC(NP1(=O)SC(NN=C2CCCCC2)=NC1(C)C)C(=O)O` (stereo not given), the T/C by setting is: under setting [8], 100 % of control; under setting [9], 100 % of control; under setting [10], 100 % of control.

Regarding `O=C1CC(c2ccccc2)C(c2ccccc2)C(=O)O1` (stereo not given), the T/C is 87 % of control (dose: 100.0 mg/kg/injection, schedule: Q04DX003 (ip), vehicle: Klucel (hydroxypropylcellulose) (HPC)); 93 % of control (dose: 200.0 mg/kg/injection, schedule: Q04DX003 (ip), vehicle: Klucel (hydroxypropylcellulose) (HPC)); 91 % of control (dose: 400.0 mg/kg/injection, schedule: Q04DX003 (ip), vehicle: Klucel (hydroxypropylcellulose) (HPC)).

`Cc1ccc(-c2csc3nc(C)c(CN4CCCCC4)c(=O)n23)cc1`: the T/C (dose: 75.0 mg/kg/injection, schedule: Q04DX002 (ip), vehicle: Klucel (hydroxypropylcellulose) (HPC)) was 113 % of control; the T/C (dose: 150.0 mg/kg/injection, schedule: Q04DX002 (ip), vehicle: Klucel (hydroxypropylcellulose) (HPC)) is 103 % of control; the T/C (dose: 300.0 mg/kg/injection, schedule: Q04DX002 (ip), vehicle: Klucel (hydroxypropylcellulose) (HPC)) is 113 % of control.

Turning to `CC(=O)N1CCCC2=C1CCCCCC2`, the T/C is 99 % of control (dose: 12.5 mg/kg/injection, schedule: Q04DX003 (ip), vehicle: saline); 104 % of control (dose: 25.0 mg/kg/injection, schedule: Q04DX003 (ip), vehicle: saline); 104 % of control under setting [11]; 117 % of control under setting [12]; 101 % of control under setting [13]; 100 % of control under setting [14].

As for `CC(=O)C(=Cc1ccc(O)cc1)C(C)=O`, the T/C is, setting by setting: under setting [2], 100 % of control; under setting [3], 103 % of control; under setting [4], 103 % of control.

Take `Cc1ccc(Cl)cc1S`: the T/C is, setting by setting: under setting [11], 95 % of control; under setting [12], 95 % of control.

As to `CCCCCCC1(/C=C/c2ccc(Cl)cc2Cl)OCCCO1`, the T/C is, setting by setting: (dose: 50.0 mg/kg/injection, schedule: Q01DX009 (ip), vehicle: saline + alcohol) 94 % of control; (dose: 100.0 mg/kg/injection, schedule: Q01DX009 (ip), vehicle: saline + alcohol) 97 % of control; (dose: 200.0 mg/kg/injection, schedule: Q01DX009 (ip), vehicle: saline + alcohol) 97 % of control.

With `CC(=O)/C(=C\c1cccc(Cl)c1)C(=O)CCN(C)C`, the T/C runs as follows: under setting [8], 108 % of control and 111 % of control; under setting [9], 115 % of control.

Regarding `CCn1c2ccc(N)cc2c2c3ncc4cccn4c3ccc21`, the T/C reads like this: under setting [8], 88 % of control; under setting [9], 87 % of control.

Take `CC(=O)Sc1nnc2c3ccccc3n(C(C)=O)c2n1`: the T/C under setting [12] is 99 % of control, the T/C under setting [13] was 97 % of control and the T/C under setting [14] is 105 % of control.

Consider `CN(C)c1ccc(N(C)C)c(C(O)(c2ccccc2)c2ccccc2)c1`, for which the T/C under setting [15] was 88 % of control.

Consider `Oc1ccc2[nH]cc(CCNCC3(O)OCC(O)C(O)C3O)c2c1` (stereo not given), for which the T/C was 98 % of control under setting [16], 101 % of control under setting [17] and 91 % of control under setting [18].

Consider `OCCC(CCN1CCOCC1)(c1ccccc1)C1(O)CCCC1` (stereo not given), for which the T/C is 95 % of control under setting [16], 98 % of control under setting [17] and 92 % of control under setting [18].

As to `CC(=O)Nc1ccc(C(=O)/C=N\NC(N)=S)cc1`, the T/C was 94 % of control under setting [15]; 86 % of control (dose: 100.0 mg/kg/injection, schedule: Q01DX009 (ip), vehicle: saline with Tween-80); 94 % of control (dose: 200.0 mg/kg/injection, schedule: Q01DX009 (ip), vehicle: saline with Tween-80).

`CN(C)C1CS(=O)(=O)OC2=C1CCc1c2ccn1C` (stereo not given): the T/C runs as follows: under setting [5], 96 % of control; under setting [6], 98 % of control; under setting [7], 96 % of control.

For `C[C@H](N)C(=O)/C=C/c1ccccc1`, the T/C by setting is: (dose: 10.0 mg/kg/injection, schedule: Q01DX005 (ip), vehicle: saline) 101 % of control; (dose: 20.0 mg/kg/injection, schedule: Q01DX005 (ip), vehicle: saline) 100 % of control; (dose: 40.0 mg/kg/injection, schedule: Q01DX005 (ip), vehicle: saline) 98 % of control.

For `CCCN(CCC)CC(C)(C)C(O)c1ccc(OC)c2ccccc12` (stereo not given), the T/C by setting is: under setting [1], 110 % of control; under setting [2], 108 % of control.

Turning to `O=S(=O)(O)O.[NH2-].[NH2-].[Pt+2]`, the T/C (dose: 1.56 mg/kg/injection, schedule: Q04DX002 (ip), vehicle: saline with Tween-80) was 112 % of control; the T/C (dose: 6.25 mg/kg/injection, schedule: Q04DX002 (ip), vehicle: saline with Tween-80) was 162 % of control; the T/C (dose: 12.5 mg/kg/injection, schedule: Q04DX002 (ip), vehicle: saline with Tween-80) was 156 % of control.

With `COC(=O)C1C(=O)C(C(=O)OC)C2(C)C(C(=O)OC)C(=O)C(C(=O)OC)C12C` (stereo not given), the T/C runs as follows: under setting [5], 103 % of control; under setting [6], 102 % of control; under setting [7], 103 % of control.

As for `C/C=C/CC(C)C(O)C1C(=O)NC(CC)C(=O)N(C)CC(=O)N(C)C(CC(C)C)C(=O)NC(C(C)C)C(=O)N(C)C(CC(C)C)C(=O)NC(C)C(=O)NC(C)C(=O)N(C)C(CC(C)C)C(=O)N(C)C(CC(C)C)C(=O)N(C)C(C(C)C)C(=O)N1C` (stereo not given), the T/C (dose: 15.0 mg/kg/injection, schedule: Q01DX009 (ip), vehicle: Klucel (hydroxypropylcellulose) (HPC)) is 106 % of control; the T/C (dose: 30.0 mg/kg/injection, schedule: Q01DX009 (ip), vehicle: Klucel (hydroxypropylcellulose) (HPC)) is 109 % of control; the T/C (dose: 60.0 mg/kg/injection, schedule: Q01DX009 (ip), vehicle: Klucel (hydroxypropylcellulose) (HPC)) was 116 % of control; the T/C (dose: 120.0 mg/kg/injection, schedule: Q01DX009 (ip), vehicle: Klucel (hydroxypropylcellulose) (HPC)) is 109 % of control.

Regarding `CCOC(=O)c1ccc(NC(=O)Oc2ccccc2C(=O)OC)cc1`, the T/C by setting is: under setting [8], 100 % of control; under setting [9], 100 % of control; under setting [10], 95 % of control.

Source of the values: PubChem BioAssay AID330 (DTP/NCI, 2004).
